Test results: ChEMBL document CHEMBL4190370, “Emerging New Targets for the Treatment of Resistant Fungal Infections” (J Med Chem, 2018)
Values after ≈ are worked out from the molar mass of the structure shown.

Key:
Aspergillus fumigatus [1] = test: Antifungal activity against Aspergillus fumigatus MTU 06002; type: functional
Cryptococcus neoformans [2] = test: Antifungal activity against Cryptococcus neoformans H99 serotype A after 72 hrs by microdilution method; type: functional, Cryptococcus neoformans var. grubii H99
Candida albicans [3] = test: Inhibition of Cch1 in Candida albicans isolate 10 assessed as potentiation of fluconazole-induced antifungal activity by measuring fractional inhibitory concentration index after 24 hrs by checkerboard assay
Candida albicans [4] = test: Inhibition of Cch1 in Candida albicans isolate 16 assessed as potentiation of fluconazole-induced antifungal activity by measuring fractional inhibitory concentration index after 24 hrs by checkerboard assay
[5] = Toxicity in ip dosed DBA/2 mouse infected with Candida albicans MY1055 administered bid for 2 days or qd for 4 days measured on day 4; type: organism-based; details: in vivo
Candida albicans [6] = test: Synergistic antimicrobial activity against Candida albicans Ca2323 isolate at MIC concentration after 24 hrs at 30 degC in presence of G884; type: functional
Candida albicans [7] = test: Synergistic antimicrobial activity against Candida albicans Ca2323 isolate at MIC concentration after 24 hrs at 30 degC in presence of G365; type: functional
Saccharomyces cerevisiae [8] = test: Synergistic antimicrobial activity against Saccharomyces cerevisiae S288c isolate at MIC concentration after 24 hrs at 30 degC in presence of G365; type: functional
Saccharomyces cerevisiae [9] = test: Synergistic antimicrobial activity against Saccharomyces cerevisiae S288c isolate at MIC concentration after 24 hrs at 30 degC in presence of G884; type: functional
Cryptococcus neoformans [10] = test: Antifungal activity against Cryptococcus neoformans H99 after 48 hrs; type: functional; details: var grubii H99 
Aspergillus fumigatus [11] = test: Antifungal activity against Aspergillus fumigatus ATCC 46645 after 24 hrs; type: functional; details: ATCC 46645, 24 h
Candida albicans [12] = test: Antifungal activity against Candida albicans ATCC 90028 after 48 hrs by broth-microdilution method; type: functional; details: ATCC 90028, 48 h
Candida albicans [13] = test: Antifungal activity against Candida albicans ATCC 24433 after 48 hrs by broth-microdilution method; type: functional; details: ATCC 24433, 48 h
Candida albicans [14] = test: Antifungal activity against Candida albicans ATCC 44859 after 48 hrs by broth-microdilution method; type: functional; details: ATCC 44859, 48 h
Candida albicans [15] = test: Antifungal activity against Candida albicans IFM 40009 after 48 hrs by broth-microdilution method; type: functional; details: IFM 40009, 48 h
Candida albicans [16] = test: Antifungal activity against Candida albicans IFM 5728 after 48 hrs by broth-microdilution method; type: functional; details: IFM 5728, 48 h
Candida albicans [17] = test: Antifungal activity against Candida albicans TIMM 0171 after 48 hrs by broth-microdilution method; type: functional; details: TIMM 0171, 48 h
Candida albicans [18] = test: Antifungal activity against Candida albicans TIMM 0239 after 48 hrs by broth-microdilution method; type: functional; details: TIMM 0239, 48 h
Cryptococcus neoformans [19] = test: Antifungal activity against Cryptococcus neoformans TIMM 3173 after 48 hrs by broth-microdilution method; type: functional; details: TIMM 3173, 48 h
Aspergillus fumigatus [20] = test: Antifungal activity against Aspergillus fumigatus IFM 40808 after 48 hrs by broth-microdilution method; type: functional; details: IFM 40808, 48 h
[21] = target: T1, Glycylpeptide N-tetradecanoyltransferase (Candida albicans (strain SC5314 / ATCC MYA-2876) (Yeast), UniProt P30418); test: Inhibition of Candida albicans ATCC 90028 NMT using GLTISKLFRR-NH2 as substrate assessed as reduction in [3H]-myristoylated peptide reaction product formation preincubated with substrate for 10 mins followed by enzyme addition measured after 10 mins by HPLC analysis
T1 sequence (P30418 whole entry): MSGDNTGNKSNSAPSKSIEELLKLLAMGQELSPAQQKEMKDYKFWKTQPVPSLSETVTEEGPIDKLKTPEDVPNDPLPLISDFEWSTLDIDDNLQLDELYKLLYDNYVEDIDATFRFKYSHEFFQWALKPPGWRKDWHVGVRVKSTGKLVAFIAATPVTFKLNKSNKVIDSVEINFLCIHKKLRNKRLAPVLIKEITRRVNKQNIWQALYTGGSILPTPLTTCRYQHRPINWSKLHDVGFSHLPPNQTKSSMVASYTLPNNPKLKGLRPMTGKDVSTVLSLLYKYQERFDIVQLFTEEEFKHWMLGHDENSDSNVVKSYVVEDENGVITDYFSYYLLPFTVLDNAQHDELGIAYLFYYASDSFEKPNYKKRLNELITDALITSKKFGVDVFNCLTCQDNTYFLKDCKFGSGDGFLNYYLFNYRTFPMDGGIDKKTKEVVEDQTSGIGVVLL

Candida albicans [22] = test: Antifungal activity against Candida albicans; type: functional
[23] = Inhibition of Aspergillus fumigatus AGM1
Candida albicans [24] = test: Antifungal activity against fluconazole-resistant Candida albicans clinical isolate 3034 planktonic cells after 48 hrs by broth microdilution assay; type: functional; details: isolate 3034, 48 h
Candida albicans [25] = test: Antifungal activity against fluconazole-resistant Candida albicans clinical isolate 4617 planktonic cells after 48 hrs by broth microdilution assay; type: functional; details: isolate 4617, 48 h
Candida albicans [26] = test: Antifungal activity against fluconazole-resistant Candida albicans clinical isolate 4639 planktonic cells after 48 hrs by broth microdilution assay; type: functional; details: isolate 4639, 48 h
Candida albicans [27] = test: Antifungal activity against fluconazole-resistant Candida albicans clinical isolate 5106 planktonic cells after 48 hrs by broth microdilution assay; type: functional; details: isolate 5106, 48 h
Candida albicans [28] = test: Antifungal activity against fluconazole-resistant Candida albicans clinical isolate 4380 planktonic cells after 48 hrs by broth microdilution assay; type: functional; details: isolate 4380, 48 h
Candida albicans [29] = test: Antifungal activity against fluconazole-resistant Candida albicans clinical isolate 2440 planktonic cells after 48 hrs by broth microdilution assay; type: functional; details: isolate 2440, 48 h
Candida albicans [30] = test: Antifungal activity against fluconazole-resistant Candida albicans clinical isolate 2307 planktonic cells after 48 hrs by broth microdilution assay; type: functional; details: isolate 2307, 48 h
Candida albicans [31] = test: Antifungal activity against fluconazole-resistant Candida albicans clinical isolate 412 planktonic cells after 48 hrs by broth microdilution assay; type: functional; details: isolate 412, 48 h
Candida albicans [32] = test: Antifungal activity against fluconazole-resistant Candida albicans clinical isolate 1691 planktonic cells after 48 hrs by broth microdilution assay; type: functional; details: isolate 1691, 48 h
Candida albicans [33] = test: Antifungal activity against fluconazole-resistant Candida albicans clinical isolate 3731 planktonic cells after 48 hrs by broth microdilution assay; type: functional; details: isolate 3731, 48 h
Candida albicans [34] = test: Antifungal activity against fluconazole-resistant Candida albicans clinical isolate 6482 planktonic cells after 48 hrs by broth microdilution assay; type: functional; details: isolate 6482, 48 h
Candida albicans [35] = test: Antifungal activity against fluconazole-resistant Candida albicans clinical isolate 6191 planktonic cells after 48 hrs by broth microdilution assay; type: functional; details: isolate 6191, 48 h
Candida albicans [36] = test: Antifungal activity against fluconazole-resistant Candida albicans SC5314 planktonic cells after 48 hrs by broth microdilution assay; type: functional; details: SC5314, 48 h
Candida albicans [37] = test: Antibiofilm activity against Candida albicans SC5314 assessed as inhibition of biofilm formation at 2 to 4 ug/ml after 24 hrs by XTT reduction assay; type: functional
Candida albicans [38] = test: Antibiofilm activity against Candida albicans SC5314 assessed as inhibition of mature biofilm formation at 8 to 32 ug/ml after 24 hrs by XTT reduction assay; type: functional
Candida albicans [39] = test: Antifungal activity against Candida albicans after 24 hrs; type: functional
Cryptococcus neoformans [40] = test: Antifungal activity against Cryptococcus neoformans after 24 hrs; type: functional
Aspergillus fumigatus [41] = test: Antifungal activity against Aspergillus fumigatus after 24 hrs; type: functional
Saccharomyces cerevisiae [42] = test: Inhibition of Saccharomyces cerevisiae AHAS
Candida tropicalis = test: Antifungal activity against Candida tropicalis KKP 334 by CLSI protocol based method; type: functional

C/N=[N+](\[O-])CC[C@H](N)C(=O)O
IC80 (Aspergillus fumigatus [1]): 0.72 µg/mL (≈ 4.47 µM)

C/C=C/C[C@@H](C)[C@@H](O)[C@H]1C(=O)N[C@@H](CC)C(=O)N(C)CC(=O)N(C)[C@@H](CC(C)C)C(=O)N[C@@H](C(C)C)C(=O)N(C)[C@@H](CC(C)C)C(=O)N[C@@H](C)C(=O)N[C@H](C)C(=O)N(C)[C@@H](CC(C)C)C(=O)N(C)[C@@H](CC(C)C)C(=O)N(C)[C@@H](C(C)C)C(=O)N1C [CYCLOSPORINE]
MIC (Cryptococcus neoformans [2]): 0.39 µg/mL (≈ 0.324 µM)

CCOC(=O)C1=C(COCCN)NC(C)=C(C(=O)OC)C1c1ccccc1Cl (centres undefined)
fractional inhibitory concentration index (FICI) (Candida albicans [3]): 0.017 to 0.035
fractional inhibitory concentration index (FICI) (Candida albicans [4]): 0.017 to 0.035

C=C1C2CC3[C@@H](C(C)C)[C@H](OC(=O)NCCCC)C[C@]3(C)CC2/C(C)=C\CC2[C@H](C)OC(=O)[C@@H](O)[C@@]12O (some centres undefined)
LD50 at 4 days [5]: > 300 mg/kg
fractional inhibitory concentration index (FICI) (Candida albicans [6]): 0.25 - 0.313
fractional inhibitory concentration index (FICI) (Candida albicans [7]): 0.25 - 0.313
fractional inhibitory concentration index (FICI) (Saccharomyces cerevisiae [8]): 0.25 - 0.313
fractional inhibitory concentration index (FICI) (Saccharomyces cerevisiae [9]): 0.25 - 0.313

Cc1nn(-c2ccccc2)c2nc(C(F)(F)F)cc(O)c12
MIC80 (Cryptococcus neoformans [10]): 32 to 64 µg/mL (≈ 109 to 218 µM)

CC1=C(O)C(=O)C=C2C1=CC=C1[C@@]2(C)CC[C@@]2(C)[C@@H]3C[C@](C)(C(=O)O)CC[C@]3(C)CC[C@]12C [CELASTROL]
MIC (Aspergillus fumigatus [11]): 2 µM (≈ 0.901 µg/mL)

O=C(Nc1nc2ccc(NC(=O)[C@@H]3CCC[C@H](NCc4ccc5ccccc5c4)C3)cc2s1)C1CCCC1
MIC (Candida albicans [12]): 0.78 µM (≈ 0.411 µg/mL)
MIC (Candida albicans [13]): 0.78 µM (≈ 0.411 µg/mL)
MIC (Candida albicans [14]): 0.78 µM (≈ 0.411 µg/mL)
MIC (Candida albicans [15]): 0.78 µM (≈ 0.411 µg/mL)
MIC (Candida albicans [16]): 0.78 µM (≈ 0.411 µg/mL)
MIC (Candida albicans [17]): 0.78 µM (≈ 0.411 µg/mL)
MIC (Candida albicans [18]): 0.78 µM (≈ 0.411 µg/mL)
MIC (Cryptococcus neoformans [19]): > 25 µM
MIC (Aspergillus fumigatus [20]): > 25 µM
IC50 [21]: 0.00049 µM

N=C(N)NCCC[C@H](N)C(=O)N[C@@H](/C=C/CP(=O)(O)O)C(=O)O
MIC (Candida albicans [22]): 0.35 µg/mL (≈ 0.996 µM)

Nc1ccc(O)c2c1C(=O)c1c(O)ccc(N)c1C2=O
Ki [23]: 300 µM

CCCCCCCCCCCCCCCCOP(=O)([O-])OCC[N+](C)(C)C [MILTEFOSINE]
MIC (Candida albicans [24]): 0.5 to 2 µg/mL (≈ 1.23 to 4.91 µM)
MIC (Candida albicans [25]): 0.5 to 2 µg/mL (≈ 1.23 to 4.91 µM)
MIC (Candida albicans [26]): 0.5 to 2 µg/mL (≈ 1.23 to 4.91 µM)
MIC (Candida albicans [27]): 0.5 to 2 µg/mL (≈ 1.23 to 4.91 µM)
MIC (Candida albicans [28]): 0.5 to 2 µg/mL (≈ 1.23 to 4.91 µM)
MIC (Candida albicans [29]): 0.5 to 2 µg/mL (≈ 1.23 to 4.91 µM)
MIC (Candida albicans [30]): 0.5 to 2 µg/mL (≈ 1.23 to 4.91 µM)
MIC (Candida albicans [31]): 0.5 to 2 µg/mL (≈ 1.23 to 4.91 µM)
MIC (Candida albicans [32]): 0.5 to 2 µg/mL (≈ 1.23 to 4.91 µM)
MIC (Candida albicans [33]): 0.5 to 2 µg/mL (≈ 1.23 to 4.91 µM)
MIC (Candida albicans [34]): 0.5 to 2 µg/mL (≈ 1.23 to 4.91 µM)
MIC (Candida albicans [35]): 0.5 to 2 µg/mL (≈ 1.23 to 4.91 µM)
MIC (Candida albicans [36]): 0.5 to 2 µg/mL (≈ 1.23 to 4.91 µM)
inhibition (INH) (Candida albicans [37]): 90%
inhibition (INH) (Candida albicans [38]): >90%

CCc1cccc(C)c1NS(=O)(=O)c1nc2nc(C)cc(C3CC3)n2n1
MIC50 (Candida albicans [39]): 1 µg/mL (≈ 2.69 µM)
MIC50 (Cryptococcus neoformans [40]): 4 µg/mL (≈ 10.8 µM)
MIC50 (Aspergillus fumigatus [41]): 4 µg/mL (≈ 10.8 µM)
IC30 (Saccharomyces cerevisiae [42]): 4.2 µM

COC(=O)c1ccc(C[C@@H](C(=O)OC)[C@@H](O)C(=O)OC)cc1
MIC (Candida tropicalis): 1000 µg/mL (≈ 3220 µM)

NC(Cc1cc(O)c(O)cc1O)C(=O)O (centres undefined)
IC50 [23]: 58 µM
